Data as given in patent US6410545B1, “Lipid lowering quinazoline dietary supplement composition” (Parker Hughes Institute, priority 1998, dated 2002).
Values joined by “and” are separate entries in the source; they are usually repeats but may differ in a detail not shown here. Identical values can stand only once.

Tests used:
Assay type in all cases: in vivo
[1] = tested on: hypercholesterolemic C57B⅙ mice; experiment: Serum lipoprotein profile (VLDL-C, HDL-C) by FPLC in C57B⅙ mice on cocoa butter diet; details: for HDL-C / VLDL-C: C57B1/6, cocoa butter diet
Procedure: (§1) Three- to four-week old C57B⅙ male mice (Taconic, Germantown, N.Y., USA) were kept in micro-isolator cages on a 12-hour day/night cycle and fed the Paigen's cocoa butter diet (15.8% fat, 1.25% cholesterol, and 0.5% sodium cholate) (Harlan Teklad, Madison, Wis., USA) for two weeks prior to initiation of lipid lowering therapy. Paigen's diet is described in Nishina et.al., 1993, J. Lipid Res. 34: 1413-1422.
(§2) Animals were treated with test compounds by intraperitoneal injection daily for 7 days. A range of doses was administered. Control animals received vehicle alone. The effect of quinazoline derivatives on total cholesterol, LDL, HDL, liver enzymes, and glucose was analyzed. The mice tissues were also examined histologically.
(§3) Serum cholesterol profiles were examined by Fast Protein Liquid Chromatography (FPLC) using 100 μl of serum per run. The serum was passed over two Superose™ 6 HR 10/30 connected in tandem equilibrated in phosphate buffered saline (PBS), using the FPLC system from Pharmacia Biotech (Piscataway, N.J., USA) consisting of a controller LCC-501 plus connected to a UV detector (UV-MII), two P500 pumps, and a Frac-100 fraction collector. The FPLC was remotely controlled and operated by the FPLC director program operated on an IBM computer. The system was operated at a flow rate of 0.5 ml/minute and fractions were collected at 0.5 ml/fraction. Cholesterol concentration of each fraction was determined as described above and plotted against the fraction numbers to obtain the serum cholesterol profile.
(§4) To determine the serum concentrations of LDL/β-VLDL and HDL, the sums of the LDL/β-VLDL peak (fractions 29-35) and the HDL peak (fractions 53-63) were divided by 0.1. To obtain the IC50 and the minimum β-VLDL and HDL concentrations, the concentrations of β-VLDL and HDL were plotted against the dosage. Best fitted exponential decay curves were obtained using the equation: Concentration of HDL or LDL/β-VLDL=Aexp(−BX)+E, where A+E equals the concentration of HDL or LDL/β-VLDL at the dosage of 0 μg/day and E equals the mathematical minimum concentration of HDL or β-VLDL, and B equals 0.69/IC50. Best fitted curves were obtained using the Graphpad Inplot program, Graphpad Software, San Diego, Calif., USA.
As shown by their serum lipoprotein profiles (FIG. 1), hypercholesterolemic C57B⅙ mice preferentially accumulated cholesterol rich VLDL (171±19 mg/dL, n=4 versus 7±4 mg/dL, n=3, p=0.0008) but no changes in HDL cholesterol levels (90±9 mg/dL, n=4 versus 86±13 mg/dL, n=3, p=0.8) (Table 2). […] In WHI-P164 treated mice, serum VLDL-C decreased immediately from 171±19 mg/dL (n=4), to 99±13 mg/dL (n=4) at the 1.6 mg/kg/day dose level (P=0.02) and further decreased to 78±15 mg/dL (n=4) at the 16 mg/kg/day dose level (p=0.1) (Table 1). […] Thus, WHI-P164 was only able to reduce VLDL-C by […].

apo e−/− mice = experiment: Serum lipoprotein profile (VLDL-C, HDL-C) by FPLC in apo e−/− mice; details: for HDL-C / VLDL-C: apo e−/− mice, one week
Procedure: Three- to four-week old apolipoprotein E deficient (apo E^−/−) mice were the progeny of breeding pairs of apo E knockout (apo EKO) mice obtained from Jackson Labs. (Bar Harbor, Me., USA). Mice were fed either regular rodent chow (5% fat and 0% cholesterol) (Teklad-LM 485, Harlan Teklad, Madison, Wis., USA), the Paigen's cocoa butter diet, or the Western diet (21.22% fat and 0.2% cholesterol) (Harlan Teklad, Madison, Wis., USA) for two weeks prior to treatment.
as §2, §3, §4
On regular rodent chow, the serum total cholesterol level of apo e^−/− mice was 836±57 mg/dL (n=47). After one week therapy with 8 mg/kg/day WHI-P164 (n=12), the mean serum total cholesterol level was reduced to 551±29 mg/dL (p=0.02).
When challenged with a cholesterol-rich diet, these animals developed frank hypercholesterolemia due to delayed clearance of intestinal chylomicrons which shuttle the dietary cholesterol from the intestine to the liver. In the present study, all of the 46 ApoE-deficient mice that were fed Western diet (14) became severely hypercholesterolemic with a mean serum total cholesterol level of 1491±59 mg/dL. One week WHI-P164 therapy reduced the mean serum total cholesterol level of hypercholesterolemic apo e^−/− mice to 1194±84 mg/dL (p=O.006) at a dose level of 8 mg/kg/day (n=19) and to 876±57 mg/dL (p<0.0001) at a dose level of 40 mg/kg/day (n=17) (Table 3).

[2] = tested on: hypercholesterolemic C57B⅙ mice; experiment: Serum total cholesterol in hypercholesterolemic C57B⅙ mice on Paigen's cocoa butter diet; details: 1.6 mg/kg/day
Procedure: as §1, §2
Serum total cholesterol was measured enzymatically using the cholesterol kit from Sigma Chemical Co. (St. Louis, Mo., USA). For liver tissue lipid measurements, lipids were extracted from homogenized hepatic tissues using the method of Bligh and Dyer (Bligh, et al., Can. J. Biochem. Phys. 1959, 37:911-917). One gram of liver tissue was homogenized in 1 ml of distilled water and extracted with 4 ml of chloroform/methanol (1:1, v/v). The chloroform phase containing the lipids was evaporated under a stream of nitrogen, the lipids dissolved in 100 μL of isopropanol, and subjected to cholesterol determination as described above. Triglyceride (TG) contents were determined using the TG kit from Sigma Chemical Co.
A high cholesterol and high fat diet was used to induce hypercholesterolemia in C57B⅙mice, using the methods described by Paigen, et al. (Nishina, et al., 1993, J. Lipid Res. 34:1413-1422) and as described for Example 1.

Compound `COc1cc2ncnc(C(=O)c3cccc(Br)c3)c2cc1OC` [WHI-P164, 4-(3′-bromobenzoyl)-6,7-dimethoxyquinazoline] has an HDL-C ([1]; dose 1.6 mg/kg) of 93 ± 8 mg/dL, a VLDL-C ([1]; dose 1.6 mg/kg/day) of 99 ± 13 mg/dL and an HDL-C ([1]; dose 4.0 mg/kg) of 86 ± 5 mg/dL. For the same compound, the VLDL-C ([1]; dose 4.0 mg/kg) was 106 ± 15 mg/dL, the HDL-C ([1]; dose 8.0 mg/kg) was 81 ± 9 mg/dL and the VLDL-C ([1]; dose 8.0 mg/kg) was 101 ± 7 mg/dL. For the same compound, the HDL-C ([1]; dose 16.0 mg/kg) was 74 ± 10 mg/dL, the VLDL-C ([1]; dose 16 mg/kg/day) was 78 ± 15 mg/dL and the “Effect on serum HDL-C levels” value ([1]; C57B⅙ mice, cocoa butter diet) was “did not significantly affect”. The “Calculated effective dose (ED50) for VLDL-C lowering” value ([1]; C57B⅙ mice, cocoa butter diet, fitted exponential decay curve) was 0.4 mg/kg/day, the “Minimum serum VLDL-C level” value ([1]; C57B⅙ mice, cocoa butter diet, mathematical minimum of fitted curve) was 94 ± 9 mg/dL and the “Reduction of VLDL-C” value ([1]; C57B⅙ mice, cocoa butter diet, maximal reduction) was 45%. The “Reduction of LDL-C” value ([1]; hypercholesterolemic C57B⅙ mice on a high calorie diet) was 45%, the HDL-C (apo e−/− mice; Western diet, 40 mg/kg/day) was 90 ± 4 mg/dL and the VLDL-C (apo e−/− mice; Western diet, 40 mg/kg/day) was 587 ± 4 mg/dL. The HDL-C (apo e−/− mice; rodent chow, 8 mg/kg/day) was 50 ± 10 mg/dL, the VLDL-C (apo e−/− mice; rodent chow, 8 mg/kg/day) was 190 ± 13 mg/dL and the “Reduction of β-VLDL/LDL-cholesterol levels” value (apo e−/− mice; hypercholesterolemic apo e−/− mice) was 63%. The Serum total cholesterol ([2]; apo e+/+ C57B1/6 mice, cocoa butter diet two weeks, then drug 1 week at 1.6 mg/kg/day i.p.) was 348.6 ± 27.6 mg/dL and 349 ± 28 mg/dL and the “Reduction in mean serum total cholesterol” value ([2]; hypercholesterolemic C57B⅙ mice, one week, versus untreated) was 23%.
